According to a melting point compilation (Tetko et al.; mined from patent text by program, amines drawn as free bases though some values may be those of a salt):

SMILES	melting point [°C]
Nc1nc2ccccc2c2c1ncn2CCCCNC(=O)CCc1ccccc1	148 to 150
COc1cc2c(c(OC)c1OC)OCC2=O	81 to 83
CCOC(=O)c1nc2cc(F)ccc2nc1CC	42 to 45
COc1ccc(CCS(N)(=O)=S)cc1 (centres undefined)	186 to 187
CC(=O)Nc1cccc2ccc(OCC3CC3)cc12	154 to 155
CC(C)(C)OC(=O)c1ccc(Cl)cn1	86.3 to 88.3
Cc1cc2ncn(C)c(=O)c2s1	188 to 190
COC(=O)Cc1c(OC)ccc2c1Oc1c(ccc(OC)c1C=NO)C2(C)C	234 to 236
Cc1nc(-n2ccc(C(F)(F)F)cc2=O)sc1C(=O)NCc1cccnc1	172 to 173
COc1ccc(N2C(=O)NC3(CCOCC3)C2=O)cc1	253 to 254
CCOC(=O)C1(c2ccccc2)CCN(C/C=C/C(C#N)(c2ccccc2)c2ccccc2)CC1	100 to 102
Cc1ccc(Cc2cnc(NCCCNc3ncc(Cl)cc3Cl)[nH]c2=O)cn1	147 to 148
Cc1[nH]c(-c2ccccc2)c(N)c1C(=O)c1ccccc1	203 to 205
CCc1nc2c(cnn2CC)c(NC2CCOCC2)c1CNC(=O)c1cccc(C(=O)NCc2ccc(F)c(-c3cccc(CN4CCNC(=O)C4)c3)c2)c1	147 to 150
CC(C)(C)C(=O)C(=[N+]=[N-])S(=O)(=O)C1CCCCC1	80.5 to 82
CNC(=S)C1(c2cccnc2)CCCS1=O (centres undefined)	204
CN1C2CCC1CC(c1n[nH]c3cc(F)ccc13)C2 (centres undefined)	235 to 236
CSc1c(CC(=O)O)ccc2c3ccccc3n(Cc3ccccc3)c12	182 to 183
COc1cc(Nc2nc3c(ccc4c3ncn4CCN3CCOCC3)cc2C#N)c(C)cc1Cl	246 to 248
Cc1nn(C)c(C)c1-c1cccc(-n2c(N)nc3ccccc32)c1	198 to 200
C[C@@H]1CN(c2nccc(Oc3ccc(NC(=O)c4cc(F)cc(N5CCCCC5)c4)c4ccccc34)n2)C[C@H](C)O1	174 to 176
COC(=O)c1sc2ccccc2c1S(N)(=O)=O	150 to 154
O=C(O)CCCCCCCCCCCCCCC(=O)ON1C(=O)CCC1=O	118 to 121
CCn1c2ccc3ccccc3c2c2cccc(C=O)c21	148 to 149
NC(=O)c1cccc(C2OCCO2)c1	92 to 94
Cc1ccc2c(-c3cc(C(C)(C)C)c(O)c(C(C)(C)C)c3)nn(C)c2n1	178 to 181
O=C(N[C@H]1CC[C@H](CCN2CCC(c3cccc4c3CCO4)CC2)CC1)c1ccc(F)cc1	213

SMILES	melting point [°C]
O=C1c2c(O)ccc(O)c2C(=O)c2c(NCCN3CCC(O)CC3)ccc(NCCN3CCC(O)CC3)c21	241 to 244
CC(=O)OC1CSC(Oc2ccc(I)nc2Cl)C(OC(C)=O)C1OC(C)=O (centres undefined)	188
Nc1nc2ccccc2c2c1ncn2CCCCNC(=O)c1ccccc1Oc1ccccc1	93 to 94
Cc1oc(-c2ccccc2)nc1COc1ccc(/C=C/C=C/C#N)cc1	120 to 121
Cc1cc2c(cc1C1=NNC(=O)CC1)OCC(=O)N2C	211 to 213
Cc1csc(Nc2cc3ccccc3cn2)n1	212 to 215
CC(C)COC(=O)ON1C(=O)CCC1=O	33 to 35
CC[C@@H]1N(c2ccc(C#N)c(C(F)(F)F)c2)C(=O)C[C@]1(C)O	137 to 139
CC(C)(C)OC(=O)N[C@H](Cc1ccc(CC(F)(F)C(F)(F)F)cc1)[C@@H](O)c1cccc(Cl)c1 (racemic)	156 to 157
O=C(c1cccs1)c1cnn2c(-c3cccc(NC/C=C/c4ccccc4)c3)ccnc12	123 to 125
CC(C)OC(=O)Nc1ccc(NC=O)c([N+](=O)[O-])c1	168 to 170
Nc1c(F)c(N2CCC(C(N)c3ccco3)C2)c(F)c2c1c(=O)c(C(=O)O)cn2C1CC1F (centres undefined)	188 to 189
COC(=O)[C@@H](OS(=O)(=O)c1ccc(C)cc1)[C@H](O)C1CC1	75 to 78
O=C(NCc1ccccn1)Nc1cc(-n2cc(-c3ccccc3)oc2=O)ccn1	208 to 209
Cc1ccc(-c2ccc(C)c(CN3CCN(C(c4ccccc4)c4ccccc4)CC3)c2)cc1	177
CCCCOC(=O)c1ccc(-c2cc(-c3ccc4c(c3)C(C)(C)CCC4(C)C)nc(O)n2)cc1	267 to 277
CCOC(=O)Cn1c(=O)n(Cc2ccc(Cl)cc2)c(=O)c2ccccc21	137
O=C(O)C(Cc1ccccc1)Nc1cc(-c2ccc(Cc3ccccc3)cc2)ncn1 (centres undefined)	116 to 118
Cc1cc(C)cc(NC(=O)Cc2ccc(OC3(C(=O)O)CCCC(C)C3)cc2)c1 (centres undefined)	175 to 177
CCOC(=O)C(=O)N1CCC(Cc2ccc(C(C)(C)C)cc2)CC1	168
O=C(O)c1cc(Oc2ccc([N+](=O)[O-])cc2)cc(Oc2ccc([N+](=O)[O-])cc2)c1	230 to 232
O=C(Cc1ccncn1)c1ccc(Cl)cc1	110
C=CC1(F)CN(C2CCCC2)c2nc(Nc3ccc(C(=O)NN4CCN(C)CC4)cc3OC)ncc2N(C)C1=O (centres undefined)	253 to 263
CCOC(=O)CNc1nc(Cl)ccc1[N+](=O)[O-]	77.5 to 80
COc1cccc(C(=Cc2ccccc2)c2cccc(OC)c2OC)c1OC	138
Cc1cc(C(C)(C)C)c(O)c(S(=O)(=O)Nc2ccc(C#N)c(C(F)(F)F)c2)c1	159 to 162
C=C(C)C(=O)Nc1cccc(OC(=O)Nc2cccc3ccccc23)c1	195 to 196

Now from value to molecule:

melting point [°C]	SMILES
154 to 155	O=C(O)CCCc1cc2nc(Cl)ccc2n1S(=O)(=O)c1ccc(Cl)cc1Cl
118	O=c1c2ccccc2c(-c2ccccc2)cn1CCCN1CCCCC1
187 to 189	Cc1ccn2nc(S(=O)(=O)N(C(=O)c3ccccc3)c3c(Cl)cccc3Cl)nc2n1
119 to 120	c1ccc(-n2ncc3c2-c2ccccc2C3)cc1
102 to 104	O=c1ncc(Cl)cn1CC=CCl
207	CC1=N/C(=C\c2c[nH]c3ncccc23)C(=O)N1C(C)C
94 to 95	COc1ccc(S(=O)(=O)N(COCC[Si](C)(C)C)c2ccccc2-c2cc(F)ccc2C(C)=O)cc1
100 to 102	CC(C)N1CNS(=O)(=O)c2sc(Cl)cc21
182 to 183	CCCCS(=O)(=O)Nc1cc(C(=O)Nc2ccccc2)ccc1OC
135 to 136	CCC(=O)c1cc(-c2ccc(OC)cc2)no1
164 to 165	CCCCCCc1cc2c(cc1/C=C/c1ccc(C(=O)O)s1)C(C)(C)CCC2(C)C
184 to 187	COc1ccc(S(N)(=O)=O)cc1C(=O)NC1CCN(C2CCCCC2)C1 (centres undefined)
118	COC(=O)CCCc1cc2nc(C(F)(F)F)ccc2n1S(=O)(=O)c1ccc2c(c1)OCCN2C
118 to 120	O=C(NCCCc1ccc(CO)cc1)c1ccc(-c2ccccn2)cc1
311 to 313	COc1ccc(C(=O)Nc2ccc(-c3ncc(-c4ccc(NC(=O)C5CCCCCC5)cc4)[nH]3)cc2)cc1
101 to 104	COC(=O)N1C[C@@H](C#N)[C@H](c2ccc(OC)c(OC3CCCC3)c2)C1 (relative stereo)
156 to 158	CN(C(=O)C1(C(=O)O)CC1)c1ccc(Cl)cc1
168 to 170	CS(=O)(=O)c1ccc(-c2ccccc2Br)cc1
136 to 137	CC(C)(C)c1cc(CCc2ccccc2NC(=O)NC2CCN(Cc3ccccc3F)CC2)cc(C(C)(C)C)c1O
> 250	CNCC1Cc2cc(-c3ccccc3)cc(-c3ccc(OC)cc3)c2O1 (centres undefined)
165 to 167	CCCc1[nH]c2cc(C(N)=O)ccc2c1C(=O)COC
221 to 225	Cc1c(-n2ccnc2)n(Cc2ccc(C(=O)O)cc2)c2ccccc12
130 to 132	CC(C(=O)O)c1ccc2c(c1)C(=O)C(C(C)C)C2 (centres undefined)

melting point [°C]	SMILES
97 to 98	Cc1cc(C)c(/C=C/[C@@H](O)C[C@@H](O)CC(=O)OCOC(=O)C(C)(C)C)c(-c2ccc(F)c(C)c2)c1
95 to 97	Cc1ccccc1-c1c(C(=O)N(C)C)ccc2ccccc12
110 to 112	O=C(Nc1ccc2c(c1)OCO2)c1ccccc1
261 to 262	O=C(O)c1ccc(NC(=O)c2ccc3c(c2)SCCCC3)cc1
137 to 139	COC(=O)C=Cc1cncn1Cc1ccccc1
135 to 150	NC(=O)CN1C(=O)[C@@H](NC(=O)[C@@H]2CCC(=O)C2)[C@H](c2ccccc2)Sc2ccccc21
131 to 133	CC12CCC(C1)C1(C)Oc3ccc(C(=O)Oc4ccc(C(=O)OCc5ccccc5)cc4)cc3C21C (centres undefined)
272	COC(=O)c1ccc2c3cccc4cccc(c5ccc(C(=O)N(C)c6ccc(C(C)(C)C)cc6)c1c25)c43
183	Cc1cc(C)cc(Nc2nccc(-n3ccnc3-c3ccccc3)n2)c1
73 to 74	CCSc1nc(-c2ccccc2)c(-c2ccccc2)s1
176 to 177	Cc1cc(COc2nn(Cc3ccccc3)cc2C(=O)O)ccc1OCc1nc(-c2ccco2)oc1C
220 to 225	O=C(O)c1ccc(C(=O)N2Cc3ccccc3Cc3ccccc32)cc1
113 to 115	C#CCNc1cc(F)c([N+](=O)[O-])cc1[N+](=O)[O-]
196 to 197	Cc1cccc(C(C)(C)C)c1NC(=O)NCC1(c2ccccc2)CCCCC1
199 to 202	O=C(O)C=Cc1cccc2nnsc12
165 to 167	NC(=O)c1sc2nc(N3CCC(NCC(O)c4ccccn4)CC3)cc(C(F)(F)F)c2c1N (centres undefined)
164	OC[C@@H]1OC[C@H](n2c(NC3CC3)nc3cc(Cl)c(Cl)cc32)[C@@H](O)[C@H]1O
110	O=C(/C=C/c1ccccc1)Nc1cccc(F)c1
115 to 116	CS(=O)(=O)c1ccc(-c2ccccc2C=O)cc1
120 to 122	Nc1cc(F)ccc1C(=O)Nc1ccccc1
214	Cc1ccc(N2C(=O)c3ccccc3C2=O)nn1
284 to 285	O=C(O)c1ccc(-c2ccc(-c3ccc(C(F)(F)F)cc3)s2)cc1
